Results published in ChEMBL document CHEMBL5518156, “Recent advances of targeting nicotinamide phosphoribosyltransferase (NAMPT) for cancer drug discovery” (Eur J Med Chem, 2023).
One block for each compound: values may come before it.

Key:
[1] = Oral bioavailability in Sprague-Dawley rat at 5 mg/kg by LC-MS/MS analysis; type: ADME, organism-based; details: in vivo
[2] = Clearance in Beagle dog at 5 mg/kg, po; type: ADME, organism-based, Canis lupus familiaris; details: in vivo
[3] = Clearance in cynomolgus monkey at 5 mg/kg, po; type: ADME, organism-based, Macaca fascicularis; details: in vivo
COLO 205 = assay: Antitumor activity against human COLO 205 cells xenografted in mouse model assessed as tumor growth inhibition at 15 mg/kg, po administered once daily for 7 days relative to control; type: functional; details: COLO 205, 168 h, time 7 day, read-out: TGI
[4] = Oral bioavailability in Beagle dog at 5 mg/kg; type: ADME, organism-based, Canis lupus familiaris; details: in vivo
[5] = Oral bioavailability in Cynomolgus monkey at 5 mg/kg; type: ADME, organism-based, Macaca fascicularis; details: in vivo
[6] = Clearance in ICR mouse at 5 mg/kg, po; type: ADME, organism-based; details: in vivo
[7] = Oral bioavailability in ICR mouse at 5 mg/kg by LC-MS/MS analysis; type: ADME, organism-based; details: in vivo
[8] = Clearance in Sprague-Dawley rat at 5 mg/kg, po; type: ADME, organism-based; details: in vivo
[9] = biological target: T1, Nicotinamide phosphoribosyltransferase (Homo sapiens, UniProt P43490); assay: Inhibition of NAMPT (unknown origin)
T1 sequence (P43490 whole entry): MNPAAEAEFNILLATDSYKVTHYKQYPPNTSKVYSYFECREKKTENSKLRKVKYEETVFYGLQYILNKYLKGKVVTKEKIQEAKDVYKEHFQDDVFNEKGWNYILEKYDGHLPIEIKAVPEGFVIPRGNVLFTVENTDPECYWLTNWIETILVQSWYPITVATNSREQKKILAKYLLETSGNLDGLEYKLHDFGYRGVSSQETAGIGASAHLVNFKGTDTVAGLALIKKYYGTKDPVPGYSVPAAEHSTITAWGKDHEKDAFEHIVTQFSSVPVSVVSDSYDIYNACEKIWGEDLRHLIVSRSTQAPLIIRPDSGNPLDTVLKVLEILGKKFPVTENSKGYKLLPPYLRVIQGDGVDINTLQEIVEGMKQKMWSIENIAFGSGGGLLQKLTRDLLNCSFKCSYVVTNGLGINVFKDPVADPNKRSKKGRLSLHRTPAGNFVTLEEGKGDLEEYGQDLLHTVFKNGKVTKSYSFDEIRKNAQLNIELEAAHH

[10] = Clearance in CD-1 mouse at 2 mg/kg, iv; type: ADME, organism-based; details: in vivo
[11] = Oral bioavailability in CD-1 mouse at 2 mg/kg; type: ADME, organism-based; details: in vivo
[12] = AUC in CD-1 mouse at 2 mg/kg, iv; type: ADME, organism-based; details: in vivo
[13] = Cmax in CD-1 mouse at 2 mg/kg, iv; type: ADME, organism-based; details: in vivo
[14] = Half life in Sprague-Dawley rat at 5 mg/kg, po measured for 24 hrs by LC/MS/MS analysis; type: ADME, organism-based; details: in vivo
HCT-116 = assay: Antitumor activity against human HCT-116 cells xenografted in […] mouse assessed as tumor growth inhibition at 15 mg/kg, po administered for 3 days relative to control; type: functional; details: HCT-116, 72 h, time 3 day, read-out: TGI
[15] = Clearance in Sprague-Dawley rat at 1 mg/kg, iv; type: ADME, organism-based; details: in vivo
Histone deacetylase 1 = Histone deacetylase 1 (Homo sapiens, UniProt Q13547); assay: Inhibition of human recombinant HDAC1 using Boc-Lys(Ac)-AMC as substrate preincubated for 30 mins followed by substrate addition measured for 1 hr by fluorescence based analysis
Sequence of Histone deacetylase 1 (Q13547 whole entry): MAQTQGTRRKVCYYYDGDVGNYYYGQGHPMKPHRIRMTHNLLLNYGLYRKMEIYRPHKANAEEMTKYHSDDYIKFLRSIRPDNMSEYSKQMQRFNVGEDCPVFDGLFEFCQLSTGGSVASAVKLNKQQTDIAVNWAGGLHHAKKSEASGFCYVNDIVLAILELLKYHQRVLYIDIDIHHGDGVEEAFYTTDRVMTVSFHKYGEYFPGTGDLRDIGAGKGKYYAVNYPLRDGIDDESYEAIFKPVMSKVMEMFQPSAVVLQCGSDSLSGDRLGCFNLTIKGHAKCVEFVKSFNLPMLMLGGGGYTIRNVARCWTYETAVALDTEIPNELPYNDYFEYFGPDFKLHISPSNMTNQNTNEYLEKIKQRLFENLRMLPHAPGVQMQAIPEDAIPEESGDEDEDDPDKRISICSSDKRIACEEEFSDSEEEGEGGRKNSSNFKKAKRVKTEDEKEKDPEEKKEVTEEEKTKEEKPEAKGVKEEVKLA

Cytochrome P450 3A4 = Cytochrome P450 3A4 (Homo sapiens, UniProt P08684); assay: Inhibition of CYP3A4 (unknown origin); type: ADME
Sequence of Cytochrome P450 3A4 (P08684 whole entry): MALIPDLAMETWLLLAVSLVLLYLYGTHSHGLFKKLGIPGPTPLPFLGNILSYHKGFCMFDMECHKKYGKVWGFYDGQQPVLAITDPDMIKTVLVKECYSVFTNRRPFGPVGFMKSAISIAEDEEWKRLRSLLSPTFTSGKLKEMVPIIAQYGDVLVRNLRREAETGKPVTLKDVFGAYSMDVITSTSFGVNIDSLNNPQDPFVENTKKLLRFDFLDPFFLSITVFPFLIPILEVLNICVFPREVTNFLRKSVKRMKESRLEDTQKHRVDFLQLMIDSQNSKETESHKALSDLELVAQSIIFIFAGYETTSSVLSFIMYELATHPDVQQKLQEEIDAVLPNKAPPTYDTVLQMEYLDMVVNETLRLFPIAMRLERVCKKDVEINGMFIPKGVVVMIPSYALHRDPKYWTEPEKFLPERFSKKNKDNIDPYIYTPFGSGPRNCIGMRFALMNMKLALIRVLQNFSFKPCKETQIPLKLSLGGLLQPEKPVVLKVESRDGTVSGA

Cytochrome P450 2C9 = Cytochrome P450 2C9 (Homo sapiens, UniProt P11712); assay: Inhibition of CYP2C9 (unknown origin); type: ADME
Sequence of Cytochrome P450 2C9 (P11712 whole entry): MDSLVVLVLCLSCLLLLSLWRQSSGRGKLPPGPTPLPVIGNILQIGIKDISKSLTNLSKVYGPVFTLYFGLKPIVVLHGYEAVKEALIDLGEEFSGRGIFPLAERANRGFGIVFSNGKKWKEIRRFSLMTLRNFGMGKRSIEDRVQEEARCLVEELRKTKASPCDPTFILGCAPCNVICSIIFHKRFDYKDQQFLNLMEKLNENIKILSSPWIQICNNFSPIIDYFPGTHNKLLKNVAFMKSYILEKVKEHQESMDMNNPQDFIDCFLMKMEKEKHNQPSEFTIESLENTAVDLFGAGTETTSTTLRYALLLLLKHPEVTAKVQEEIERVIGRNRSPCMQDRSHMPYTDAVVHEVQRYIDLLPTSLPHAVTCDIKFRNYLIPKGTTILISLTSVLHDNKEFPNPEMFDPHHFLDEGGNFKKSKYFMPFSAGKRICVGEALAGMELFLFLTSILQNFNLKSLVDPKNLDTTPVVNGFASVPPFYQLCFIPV

[16] = Oral bioavailability in Sprague-Dawley rat at 5 mg/kg; type: ADME, organism-based; details: in vivo
[17] = biological target: T1, Nicotinamide phosphoribosyltransferase; assay: Inhibition of N-terminal 6His-tagged human NAMPT (unknown origin) expressed in Escherichia coli Rosetta (DE) cells incubated for 1 hr by […]
[18] = biological target: Epidermal growth factor receptor (Homo sapiens, UniProt P00533, L858R); assay: Inhibition of EGFR L858R mutant (unknown origin)
Sequence of Epidermal growth factor receptor (Homo sapiens, UniProt P00533, L858R) (P00533 25-1210 L858R limits assumed): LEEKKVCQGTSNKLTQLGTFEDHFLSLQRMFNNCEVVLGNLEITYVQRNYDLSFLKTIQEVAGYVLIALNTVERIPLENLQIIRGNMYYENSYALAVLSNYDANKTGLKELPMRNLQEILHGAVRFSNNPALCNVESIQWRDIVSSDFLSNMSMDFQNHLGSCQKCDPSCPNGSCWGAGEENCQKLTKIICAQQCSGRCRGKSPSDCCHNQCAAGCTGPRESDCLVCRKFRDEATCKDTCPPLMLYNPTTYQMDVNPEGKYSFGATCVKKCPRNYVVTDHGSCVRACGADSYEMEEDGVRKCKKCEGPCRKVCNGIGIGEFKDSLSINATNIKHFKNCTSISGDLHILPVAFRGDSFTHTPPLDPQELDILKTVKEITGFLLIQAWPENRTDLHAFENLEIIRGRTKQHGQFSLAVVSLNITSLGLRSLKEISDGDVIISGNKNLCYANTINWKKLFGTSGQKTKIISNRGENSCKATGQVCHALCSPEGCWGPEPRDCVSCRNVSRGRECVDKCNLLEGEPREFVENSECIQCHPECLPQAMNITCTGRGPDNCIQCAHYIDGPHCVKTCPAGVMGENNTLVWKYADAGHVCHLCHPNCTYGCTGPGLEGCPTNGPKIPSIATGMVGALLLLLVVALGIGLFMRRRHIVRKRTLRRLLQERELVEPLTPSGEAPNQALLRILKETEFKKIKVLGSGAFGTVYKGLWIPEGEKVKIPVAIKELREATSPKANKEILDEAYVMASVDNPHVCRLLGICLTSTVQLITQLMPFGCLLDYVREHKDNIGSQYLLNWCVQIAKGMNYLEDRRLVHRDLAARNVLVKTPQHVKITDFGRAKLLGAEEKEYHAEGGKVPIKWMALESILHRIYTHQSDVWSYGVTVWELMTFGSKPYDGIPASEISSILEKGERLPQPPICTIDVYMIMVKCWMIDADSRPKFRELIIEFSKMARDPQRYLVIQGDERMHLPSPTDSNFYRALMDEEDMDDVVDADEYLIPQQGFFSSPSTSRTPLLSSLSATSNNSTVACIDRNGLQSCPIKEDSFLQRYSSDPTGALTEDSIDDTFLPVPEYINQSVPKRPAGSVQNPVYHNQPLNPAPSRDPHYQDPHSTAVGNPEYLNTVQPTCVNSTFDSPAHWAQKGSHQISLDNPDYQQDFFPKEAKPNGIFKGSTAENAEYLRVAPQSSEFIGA

[19] = biological target: Epidermal growth factor receptor (Homo sapiens, UniProt P00533, L861Q); assay: Inhibition of human EGFR L861Q mutant by discoverX kinome scan assay
Sequence of Epidermal growth factor receptor (Homo sapiens, UniProt P00533, L861Q) (P00533 25-1210 L861Q limits assumed): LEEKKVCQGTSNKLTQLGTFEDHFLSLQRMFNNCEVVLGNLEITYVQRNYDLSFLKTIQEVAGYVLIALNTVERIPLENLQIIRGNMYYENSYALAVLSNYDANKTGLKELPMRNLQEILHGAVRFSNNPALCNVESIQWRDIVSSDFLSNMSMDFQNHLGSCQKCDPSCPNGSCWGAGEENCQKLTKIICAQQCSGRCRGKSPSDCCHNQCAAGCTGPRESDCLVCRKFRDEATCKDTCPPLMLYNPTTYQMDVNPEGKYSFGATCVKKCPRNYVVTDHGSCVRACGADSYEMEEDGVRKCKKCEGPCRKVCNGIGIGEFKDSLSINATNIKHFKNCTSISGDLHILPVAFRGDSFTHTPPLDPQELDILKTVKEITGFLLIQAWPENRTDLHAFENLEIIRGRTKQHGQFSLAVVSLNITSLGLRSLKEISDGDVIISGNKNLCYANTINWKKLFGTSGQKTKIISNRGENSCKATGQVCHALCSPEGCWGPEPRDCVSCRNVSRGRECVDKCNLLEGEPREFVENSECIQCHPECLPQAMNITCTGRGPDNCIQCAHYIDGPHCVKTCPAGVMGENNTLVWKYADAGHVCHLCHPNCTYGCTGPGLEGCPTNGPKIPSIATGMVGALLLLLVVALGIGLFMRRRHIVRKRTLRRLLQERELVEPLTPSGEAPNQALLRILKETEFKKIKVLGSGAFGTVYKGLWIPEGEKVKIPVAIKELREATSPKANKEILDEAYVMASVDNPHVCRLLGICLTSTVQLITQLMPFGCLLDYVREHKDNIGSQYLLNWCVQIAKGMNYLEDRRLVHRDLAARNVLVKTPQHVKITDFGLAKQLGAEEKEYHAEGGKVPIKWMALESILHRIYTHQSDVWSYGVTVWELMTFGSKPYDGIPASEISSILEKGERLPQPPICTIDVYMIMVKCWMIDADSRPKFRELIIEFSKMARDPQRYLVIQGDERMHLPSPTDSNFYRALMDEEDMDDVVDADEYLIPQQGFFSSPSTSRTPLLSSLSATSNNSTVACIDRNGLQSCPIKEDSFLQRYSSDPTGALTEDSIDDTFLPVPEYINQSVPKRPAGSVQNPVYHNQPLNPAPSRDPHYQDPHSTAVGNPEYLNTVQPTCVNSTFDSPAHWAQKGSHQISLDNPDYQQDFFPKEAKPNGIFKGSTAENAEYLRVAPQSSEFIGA

A549 [20] = assay: Antitumor activity against human A549 cells xenografted in BALB/c nude mouse assessed as tumor growth inhibition at 20 mg/kg, ip administered once daily for 20 days relative to control; type: functional; details: A549, 480 h, time 20 day, read-out: TGI
A549 [21] = assay: Antitumor activity against human A549 cells xenografted in BALB/c nude mouse assessed as tumor growth inhibition at 10 mg/kg, ip administered once daily for 20 days relative to control; type: functional; details: A549, 480 h, time 20 day, read-out: TGI
[22] = Oral bioavailability in mouse at 2 mg/kg; type: ADME, organism-based; details: in vivo
A2780 [23] = assay: Antitumor activity against human A2780 cells xenografted in BALB/c nu/nu mouse assessed as tumor growth inhibition at 30 mg/kg, iv administered once daily for 2 weeks relative to control; type: functional; details: A2780, 336 h, read-out: TGI
[24] = biological target: von Hippel-Lindau disease tumor suppressor/Nicotinamide phosphoribosyltransferase (Homo sapiens, UniProt P43490+P40337); assay: Protac activity at VHL/NAMPT in human A2780 cells assessed as degradation of NAMPT using NAM as substrate pre-incubated for 30 mins followed by substrate addition measured for 1 hr in presence of ATP by luminescence based microplate reader analysis; type: cell-based
Sequence of von Hippel-Lindau disease tumor suppressor/Nicotinamide phosphoribosyltransferase (P43490 whole entry): as the sequence (P43490 whole entry) above
Sequence of von Hippel-Lindau disease tumor suppressor/Nicotinamide phosphoribosyltransferase (P40337 whole entry): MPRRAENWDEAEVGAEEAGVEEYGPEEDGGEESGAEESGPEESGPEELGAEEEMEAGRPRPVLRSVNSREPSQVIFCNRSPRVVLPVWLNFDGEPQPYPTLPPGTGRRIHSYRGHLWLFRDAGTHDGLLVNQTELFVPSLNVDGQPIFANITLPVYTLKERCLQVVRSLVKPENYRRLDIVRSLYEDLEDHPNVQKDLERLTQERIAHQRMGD

[25] = Half life in mouse plasma at 5 mg/kg, iv by LC-MS/MS analysis; type: ADME, organism-based
[26] = Cmax in mouse plasma at 30 mg/kg, ip measured upto 24 hrs by LC-MS/MS analysis; type: ADME, organism-based
SH-SY5Y = assay: Antiproliferative activity against human SH-SY5Y cells assessed as cell growth inhibition measured for 48 hrs by MTT assay; type: functional, cell-based
MIA PaCa-2 = assay: Antiproliferative activity against human MIA PaCa-2 cells assessed as reduction in cell viability incubated for 72 hrs by MTT assay; type: functional, cell-based; details: MIA PaCa-2, 72 h
A2780 [27] = assay: Antiproliferative activity against human A2780 cells assessed as reduction in cell viability measured for 72 hrs by MTT assay; type: functional, cell-based; details: A2780, 72 h
[28] = Cmax in Sprague-Dawley rat at 10 mg/kg, po by LC-MS analysis; type: ADME, organism-based; details: in vivo
[29] = Oral bioavailability in Sprague-Dawley rat at 10 mg/kg by LC-MS analysis; type: ADME, organism-based; details: in vivo

IC50 (Histone deacetylase 1): 55000 nM
Structure (SMILES): Nc1ccccc1NC(=O)c1ccc(Cn2cc(-c3ccc(C(=O)NCc4cccnc4)cc3)nn2)cc1

IC50 [17]: 4.3 nM
Structure (SMILES): CC(=O)NCc1ncc2cc(COc3ccc(C(=O)NCc4cccnc4)cc3)n(CCC3CCCCC3)c2n1

IC50 [9]: 41.8 nM | IC50 (SH-SY5Y): > 10000 nM
Structure (SMILES): CN1CCN(Cc2cn(-c3cccc(C(=O)NCCCCCCCn4cc(-c5cccnc5)nn4)c3)nn2)CC1

IC50 [9]: 13.6 nM | IC50 (SH-SY5Y): > 10000 nM
Structure (SMILES): O=C(NCCCCCCCn1cc(-c2cccnc2)nn1)c1cccc(-n2cc(CN3CCC(O)CC3)nn2)c1

Cmax [28]: 135 ng/mL | bioavailability [29]: 23.2%
Structure (SMILES): O=C(/C=C/c1cccnc1)NCCCCC1CCN(C(=O)c2ccc(N3CCN(CCCCCCC#Cc4cccc5c4CN(C4CCC(=O)NC4=O)C5=O)CC3)cc2)CC1 (configuration not stated)

The next lines start with the compound.

Structure (SMILES): O=C(NCc1ccc(S(=O)(=O)c2cc(F)cc(F)c2)cc1)c1ccc2nccn2c1
bioavailability [1]: 33.9% | CL/F [2]: 4.62 mL/min/kg | CL/F [3]: 9.14 mL/min/kg | inhibition in vivo at 15 mg/kg (COLO 205): 57% | bioavailability [4]: 65.2% | bioavailability [5]: 29.4% | CL/F [6]: 36.4 mL/min/kg | bioavailability [7]: 29.7% | CL/F [8]: 19.3 mL/min/kg

Structure (SMILES): CC(C)(O)CS(=O)(=O)Nc1ccc2c(c1)CCN(C(=O)COc1cccnc1)C2
IC50 [9]: 3.2 nM | clearance [10]: 159 mL/min/kg | bioavailability [11]: 39% | AUC [12]: 0.195 µM·h | Cmax [13]: 57 nM

Structure (SMILES): O=C(NC[C@@H]1CCOC1)c1ccc(NC(=O)N2Cc3ccccc3C2)cc1
half-life [14]: 3 h | inhibition in vivo at 15 mg/kg (HCT-116): 78% | clearance [15]: 4.33 mL/min/kg

Structure (SMILES): CC(C)(O)CC(=O)N1CCC(c2ccc(NC(=O)N3Cc4ccccc4C3)cc2)CC1
IC50 (Cytochrome P450 3A4): > 20000 nM | half-life [14]: 4.8 h | inhibition in vivo at 15 mg/kg (HCT-116): 90% | IC50 (Cytochrome P450 2C9): > 20000 nM | bioavailability [16]: 100%

Structure (SMILES): C#Cc1cccc(Nc2ncnc3cc(OC)c(OCCCCCCCN/C(=N\C#N)Nc4ccncc4)cc23)c1
IC50 [18]: 0.48 nM | IC50 [19]: 0.49 nM

Structure (SMILES): Cc1c(CNc2ccc(CCNC(=O)/C=C/c3cccnc3)cc2)oc2c1C(=O)C(=O)c1c-2ccc2c1CCCC2(C)C
inhibition in vivo at 20 mg/kg (A549 [20]): 52.1% | inhibition in vivo at 10 mg/kg (A549 [21]): 44.2% | bioavailability [22]: 5.8%

Structure (SMILES): CCCn1c(=O)c(-c2ccc(C(=O)NCc3cccnc3)cc2)nc2ccc(NC(=O)CCCCCCCCCCC(=O)N[C@H](C(=O)N3C[C@H](O)C[C@H]3C(=O)N[C@@H](C)c3ccc(-c4scnc4C)cc3)C(C)(C)C)cc21
inhibition in vivo at 30 mg/kg (A2780 [23]): 73% | DC50 [24]: 8.4 nM | half-life [25]: 9.89 h | Cmax [26]: 166 nM

Structure (SMILES): COC[C@H]1N[C@@H](c2ccc(NC(=O)c3ccc(CNS(=O)(=O)c4ccc(C(C)(C)C)cc4)cc3)cc2)[C@H](OC)[C@@H]1OC
IC50 (MIA PaCa-2): 32000 nM

Structure (SMILES): Cc1ccc(C(=O)N(CCCNC(=O)CCCCCCCCN2CCN(S(=O)(=O)c3ccc(NC(=S)NCc4cccnc4)cc3)CC2)[C@@H](c2nc3cc(Cl)ccc3c(=O)n2Cc2ccccc2)C(C)C)cc1
IC50 [9]: 490 nM | IC50 (A2780 [27]): 46 nM
